Results on 24 molecules are retold here after US20170157301A1, “LEOLIGIN DERIVATIVES AS SMOOTH MUSCLE CELL PROLIFERATION INHIBITORS” (TECHNISCHE UNIVERSITAET WIEN, priority 2014, published 2017).

In the assay the test system is SMCs in relation to ECs. Briefly: activity ratio: efficiency towards SMCs / efficiency towards ECs. The note with it: activity ratio class; order in Table 1 follows the calculated values. The class given is cell-based. How it is done:
For determination of vascular SMC proliferation, 0.5×10^4 viable rat aortic SMCs per well were seeded in SMC growth medium (DMEM/F12 medium with 20% serum, 30 μg/mL Gentamicin and 15 ng/mL Amphotericin) in 96-well plates. 24 h later, the medium was removed, the cells were washed once with SMC starvation medium (DMEM/F12 medium with 0.1% serum, 0.2% BSA, 30 μg/mL Gentamicin and 15 ng/mL Amphotericin) and incubated in starvation medium for further 24 h.
The quiescent cells were then pretreated for 30 min with the test compounds and induced to proliferate with 20 ng/mL platelet-derived growth factor (PDGF). Unstimulated cells were utilized for normalization and estimation of the basal level of proliferation. The final concentration of the solvent vehicle, dimethyl sulfoxide (DMSO), was the same (0.1%) in all wells. 48 h later, the SMC proliferation was quantified by resazurin dye conversion for 2 h as previously described (H. Joa et al., J. Nat. Prod. 74(6), 1513-6 (2011)).
For determination of endothelial cell proliferation, 0.5×10^4 HUVECtert immortalized human umbilical vein endothelial cells (H. B. Schiller et al., Mol. Biol. Cell. 20(3), 745-756 (2009)) were seeded in 96-well plates for 24 h in HUVEC Complete Medium (EBM™ growth medium supplemented with 10% fetal bovine serum, EBM™ SingleQuots (Lonza, Basel, Switzerland), 100 U/mL benzylpenicillin, 100 μg/mL streptomycin, and 1% amphotericin). Afterwards, the medium was exchanged with fresh HUVEC Complete Medium and cells were treated with the indicated compounds for 48 h. After the end of the incubation period, the medium was removed, the cells were washed once with 200 μL/well PBS, and treated with 150 μL HUVEC Complete Medium containing 10 μg/mL resazurin. 2 h later, the fluorescence was measured at a wavelength of 580 nm, with excitation wavelength 535 nm in a 96-well plate reader (Tecan GENios Pro; Tecan Group Ltd., Mannedorf, Switzerland).
In every case, the percentage of viable cells was subtracted from 1, in order to obtain a measure of efficiency of the test compounds towards each particular type of cells, and subsequently, the efficiency quotient towards SMCs and ECs was calculated and taken as the “activity ratio” and thus as a measure of selective efficiency of each test compound towards SMCs in relation to ECs. For example, the synthetic Leoligin with the bio ID 2418 prepared in Comparative Example 27 as compound 10-22 gave the following results:
Due to the usual fluctuations in determining surviving cells, which amount to approximately ±10%, and due to the relatively strong resulting fluctuations in calculating quotients—especially if the inhibitory effect of said novel compounds towards ECs is very poor—said threshold value of 1.50 for the activity ratio, as already mentioned above, was introduced.
In the following, a table listing every compound prepared in examples and comparative Examples for which an activity ratio (a.r.) of >1.0 was determined, is given.

On to `COc1cc([C@H]2OC[C@H](Cc3ccc(C)cc3)[C@@H]2COC(=O)C2CCCC2)cc(OC)c1OC` [Comparative Example 39, ((2S,3R,4R)-4-(4-methylbenzyl)-2-(3,4,5-trimethoxyphenyl)tetrahydrofuran-3-yl)methyl cyclopentanecarboxylate], for which the a.r. code result was “V (1.0 < a.r. < 1.50)”.

In the case of `COc1ccc([C@H]2OC[C@H](Cc3ccc(C(C)(F)F)cc3)[C@@H]2CO)cc1OC` [Example 6, ((2S,3R,4R)-4-(4-(1,1-difluoroethyl)benzyl)-2-(3,4-dimethoxyphenyl)tetrahydro-furan-3-yl)methanol], the a.r. code result is listed as “AA (a.r. ≧ 2.0)”.

As for `C/C=C(/C)C(=O)OC[C@H]1[C@@H](Cc2ccc(F)cc2)CO[C@@H]1c1ccc(F)cc1` [Example 17, (Z)-((2S,3R,4R)-4-(4-fluorobenzyl)-2-(4-fluorophenyl)tetrahydrofuran-3-yl)-methyl 2-methylbut-2-enoate], the a.r. code result is listed as “AAA (a.r. ≧ 5.0)”.

For `COc1ccc(C[C@H]2CO[C@H](c3cc(OC)c(OC)c(OC)c3)[C@H]2COC(=O)C=C(C)C)cc1OC` [Example 19, ((2S,3R,4R)-4-(3,4-dimethoxybenzyl)-2-(3,4,5-trimethoxyphenyl)tetrahydro-furan-3-yl)methyl 3-methylbut-2-enoate], the a.r. code result is “AAA (a.r. ≧ 5.0)”.

For the molecule `C/C=C(/C)C(=O)OC[C@H]1[C@@H](Cc2ccc(C(C)(F)F)cc2)CO[C@@H]1c1ccc(OC)c(OC)c1` [Example 14, (Z)-((2S,3R,4R)-4-(4-(1,1-difluoroethyl)benzyl)-2-(3,4-dimethoxyphenyl)tetra-hydrofuran-3-yl)methyl 2-methylbut-2-enoate], the a.r. code entry was “A (a.r. ≧ 1.50)”.

Regarding `C/C=C(/C)C(=O)OC[C@H]1[C@@H](Cc2ccc(CCCC)cc2)CO[C@@H]1c1ccc(OC)c(OC)c1` [Example 13, (Z)-((2S,3R,4R)-4-(4-butylbenzyl)-2-(3,4-dimethoxyphenyl)tetrahydrofuran-3-yl)methyl 2-methylbut-2-enoate], the a.r. code entry is given as “AAA (a.r. ≧ 5.0)”.

Regarding `COc1ccc(C[C@H]2CO[C@H](c3ccccc3)[C@H]2COC(=O)C2CCCCC2)cc1OC` [Example 28, ((2S,3R,4R)-4-(3,4-dimethoxybenzyl)-2-phenyltetrahydrofuran-3-yl)methyl cyclohexanecarboxylate], the a.r. code result is recorded as “A (a.r. ≧ 1.50)”.

`C/C=C(/C)C(=O)OC[C@H]1[C@@H](Cc2ccc(OC)cc2)CO[C@@H]1c1cc(OC)c(OC)c(OC)c1` [Comparative Example 33, (Z)-((2S,3R,4R)-4-(4-methoxybenzyl)-2-(3,4,5-trimethoxyphenyl)tetrahydro-furan-3-yl)methyl 2-methylbut-2-enoate]: the a.r. code entry was “V (1.0 < a.r. < 1.50)”.

Take `COc1ccc(C[C@H]2CO[C@H](c3ccc(OC)c(OC)c3)[C@H]2COC(=O)C2CCCCC2)cc1OC` [Comparative Example 37, ((2S,3R,4R)-4-(3,4-dimethoxybenzyl)-2-(3,4-dimethoxyphenyl)tetrahydrofuran-3-yl)methyl cyclohexanecarboxylate]: the a.r. code result is listed as “V (1.0 < a.r. < 1.50)”.

Regarding `C/C=C(\C)C(=O)OC[C@H]1[C@@H](Cc2ccc(OC)c(OC)c2)CO[C@@H]1c1cc(OC)c(OC)c(OC)c1` [Example 34, (E)-((2S,3R,4R)-4-(3,4-dimethoxybenzyl)-2-(3,4,5-trimethoxyphenyl)tetra-hydrofuran-3-yl)methyl 2-methylbut-2-enoate], the a.r. code entry is on record as “AAA (a.r. ≧ 5.0)”.

In the case of `COc1ccc(C[C@H]2CO[C@H](c3ccc(OC)c(OC)c3)[C@H]2COC(=O)/C=C/c2ccccc2)cc1OC` [Example 24, ((2S,3R,4R)-4-(3,4-dimethoxybenzyl)-2-(3,4-dimethoxyphenyl)tetrahydrofuran-3-yl)methyl cinnamate], the a.r. code entry is recorded as “AA (a.r. ≧ 2.0)”.

Take `COc1ccc(C[C@H]2CO[C@H](c3ccc(F)cc3)[C@H]2COC(=O)C2CCC2)cc1OC` [Example 33, ((2S,3R,4R)-4-(3,4-dimethoxybenzyl)-2-(4-fluorophenyl)tetrahydrofuran-3-yl)methyl cyclobutanecarboxylate]: the a.r. code result is “AA (a.r. ≧ 2.0)”.

Turning to `COc1ccc(C[C@H]2CO[C@H](c3ccc(OC)c(OC)c3)[C@H]2COC(=O)CC(C)C)cc1OC` [Comparative Example 41, ((2S,3R,4R)-4-(3,4-dimethoxybenzyl)-2-(3,4-dimethoxyphenyl)tetrahydrofuran-3-yl)methyl 3-methylbutanoate], the a.r. code entry was “V (1.0 < a.r. < 1.50)”.

In the case of `CCC(CC)C(=O)OC[C@H]1[C@@H](Cc2ccc(OC)c(OC)c2)CO[C@@H]1c1ccc(OC)c(OC)c1` [Comparative Example 44, ((2S,3R,4R)-4-(3,4-dimethoxybenzyl)-2-(3,4-dimethoxyphenyl)tetrahydrofuran-3-yl)methyl 2-ethylbutanoate], the a.r. code result is “V (1.0 < a.r. < 1.50)”.

For the molecule `COc1ccc(C[C@H]2CO[C@H](c3cc(OC)c(OC)c(OC)c3)[C@H]2COC(=O)C2=CCCC2)cc1OC` [Example 35, ((2S,3R,4R)-4-(3,4-dimethoxybenzyl)-2-(3,4,5-trimethoxyphenyl)tetrahydro-furan-3-yl)methyl cyclopent-1-enecarboxylate], the a.r. code result is on record as “AA (a.r. ≧ 2.0)”.

For `COc1ccc(C[C@H]2CO[C@H](c3ccc(F)cc3)[C@H]2COC(=O)C2CCCC2)cc1OC` [Example 29, ((2S,3R,4R)-4-(3,4-dimethoxybenzyl)-2-(4-fluorophenyl)tetrahydrofuran-3-yl)-methyl cyclopentanecarboxylate], the a.r. code result is reported as “A (a.r. ≧ 1.50)”.

Regarding `C/C=C(/C)C(=O)OC[C@H]1[C@@H](Cc2ccc(OC)cc2)CO[C@@H]1c1ccc(F)cc1` [Comparative Example 30, (Z)-((2S,3R,4R)-2-(4-fluorophenyl)-4-(4-methoxybenzyl)tetrahydrofuran-3-yl)-methyl 2-methylbut-2-enoate], the a.r. code result is given as “V (1.0 < a.r. < 1.50)”.

Regarding `COc1ccc([C@H]2OC[C@H](Cc3ccc(C(F)(F)F)cc3)[C@@H]2COC(=O)c2ccccc2C)cc1OC` [Comparative Example 40, ((2S,3R,4R)-2-(3,4-dimethoxyphenyl)-4-(4-(trifluoromethyl)benzyl)tetrahydro-furan-3-yl)methyl 2-methylbenzoate], the a.r. code entry was “V (1.0 < a.r. < 1.50)”.

Regarding `C#CCOC[C@H]1[C@@H](Cc2ccc(OC)c(OC)c2)CO[C@@H]1c1ccc(OC)c(OC)c1` [Example 43, (2S,3R,4R)-4-(3,4-dimethoxybenzyl)-2-(3,4-dimethoxyphenyl)-3-((prop-2-yn-1-yloxy)methyl)tetrahydrofuran], the a.r. code result is listed as “A (a.r. ≧ 1.50)”.

For the molecule `C/C=C(/C)C(=O)OC[C@H]1[C@@H](Cc2ccc(C(=O)OCC)cc2)CO[C@@H]1c1ccc(OC)c(OC)c1` [Example 11, ethyl 4-(((3R,4R,5S)-5-(3,4-dimethoxyphenyl)-4-((((Z)-2-methylbut-2-enoyl)-oxy)methyl)tetrahydrofuran-3-yl)methyl)benzoate], the a.r. code result is recorded as “A (a.r. ≧ 1.50)”.

As for `COc1ccc(C[C@H]2CO[C@H](c3ccccc3)[C@H]2COC(=O)C2CCCC2)cc1OC` [Example 26, ((2S,3R,4R)-4-(3,4-dimethoxybenzyl)-2-phenyltetrahydrofuran-3-yl)methyl cyclopentanecarboxylate], the a.r. code entry was “A (a.r. ≧ 1.50)”.

In the case of `COc1ccc([C@H]2OC[C@H](Cc3ccc(C(F)(F)F)cc3)[C@@H]2CO)cc1OC` [Example 4, ((2S,3R,4R)-2-(3,4-dimethoxyphenyl)-4-(4-(trifluoromethyl)benzyl)tetrahydro-furan-3-yl)methanol], the a.r. code entry is recorded as “A (a.r. ≧ 1.50)”.

As to `C/C=C(/C)C(=O)OC[C@H]1[C@@H](Cc2ccc(C(C)(C)C)cc2)CO[C@@H]1c1cc(OC)c(OC)c(OC)c1` [Example 20, (Z)-((2S,3R,4R)-4-(4-(tert-butyl)benzyl)-2-(3,4,5-trimethoxyphenyl)tetrahydro-furan-3-yl)methyl 2-methylbut-2-enoate], the a.r. code result is reported as “AA (a.r. ≧ 2.0)”.

With `COc1ccc(C[C@H]2CO[C@H](c3ccc(F)cc3)[C@H]2COC(=O)CC(C)(C)C)cc1OC` [Comparative Example 43, ((2S,3R,4R)-4-(3,4-dimethoxybenzyl)-2-(4-fluorophenyl)tetrahydrofuran-3-yl)-methyl 3,3-dimethylbutanoate], the a.r. code result was “V (1.0 < a.r. < 1.50)”.
